# Molecular target: T1, CCK receptor sites (Mus musculus, UniProt P56481)
# T1 construct: from tissue; host or cells: cerebral cortex membranes of male CFLP mice
# T1 sequence (P56481 1-453): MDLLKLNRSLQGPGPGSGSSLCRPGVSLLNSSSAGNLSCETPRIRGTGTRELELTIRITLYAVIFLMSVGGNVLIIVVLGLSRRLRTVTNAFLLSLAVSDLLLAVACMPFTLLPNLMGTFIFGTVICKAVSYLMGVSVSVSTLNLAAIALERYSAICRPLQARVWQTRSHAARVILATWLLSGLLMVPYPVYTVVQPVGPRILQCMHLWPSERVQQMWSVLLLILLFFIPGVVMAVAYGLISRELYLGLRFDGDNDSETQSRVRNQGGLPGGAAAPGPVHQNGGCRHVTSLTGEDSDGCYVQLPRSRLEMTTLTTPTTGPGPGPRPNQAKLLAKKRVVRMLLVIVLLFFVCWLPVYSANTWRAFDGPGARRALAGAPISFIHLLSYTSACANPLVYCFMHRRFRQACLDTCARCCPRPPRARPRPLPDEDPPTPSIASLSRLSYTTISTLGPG
# Assay: CCK receptor binding, displacement of tritiated pentagastrin from mouse cerebral cortex membranes
# Set-up: key: IA = Inactive in respect to this binding assay
# Details: 2 nM tritiated pentagastrin, mouse cerebral cortical membranes; Ki from IC50 by Cheng-Prusoff
# Experimental: The biological activity of compounds of the present invention was evaluated employing an initial screening test which rapidly and accurately measured the binding of the tested compound to known CCK receptor sites. […] (See Hays, et al, Neuropeptides 1:53-62, 1980; and Satuer, et al, Science 208:1155-1156, 1980.)
# In this screening test the cerebral cortices taken from male CFLP mice weighing between 30 to 40 g were dissected on ice, weighed, and homogenized in 10 volumes of 50 mM Tris-HCl buffer (pH 7.4 at 0° to 4° C.). The resulting suspension was centrifuged, the supernate was discarded, and the pellet was washed by resuspension in Tris-HCl buffer followed by recentrifugation. The final pellet was resuspended in 20 volumes of […] Hepes buffer (pH 7.2 at 23° C.) containing 130 mM NaCl, […] KCl, […] MgCl2, […] EDTA, 5 mg/mL bovine albumin, and bacitracin (0.25 mg/mL).
# In saturation studies, cerebral cortical membranes were incubated at 23° C. for 120 minutes in a final volume of 500 μL of Hepes incubation buffer (pH 7.2) together with 0.2-20 nM tritiated-pentagastrin (Amersham International, England).
# In the displacement experiments, membranes were incubated with a single concentration (2 nM) of ligand, together with increasing concentrations of competitive test compound. In each case, the nonspecific binding was defined as that persisting in the presence of the unlabeled octapeptide CCK26-33 (10^-6 M).
# Following incubation, radioactivity bound to membranes was separated from that free in solution by rapid filtration through Whatman GF/B filters and washed three times with 4 mL of ice cold Tris-HCl buffer. Filters from samples incubated with tritiated pentagastrin were placed in polyethylene vials with 4 mL of scintillation cocktail, and the radioactivity was estimated by liquid scintillation spectrometry (efficiency 47% to 52%).
# The specific binding to CCK receptor sites was defined as the total bound tritiated pentagastrin minus the amount of tritiated pentagastrin bound in the presence of 10^-6 octapeptide, CCK26-33.
# Saturation curves for specific tritiated pentagastrin binding to mouse cortical membranes were analyzed by the methods of Scatchard (Ann. New York Acad. Sci. 51:660-672, 1949; Hill, J. Physiol. 40:IV-VIII, 1910) to provide estimates for the maximum number of binding sites (βmax)and the equilibrium dissociation constant (Ka).
# In displacement experiments, inhibition curves were analyzed by either logit-log plots or the iterative curve fitting computer program ALLFIT (DeLean, Munson, and Redbard, 1978) to provide estimates of the IC50 and nH (apparent Hill coefficient) values). IC50 values were defined as the concentration of test compound required to produce 50% inhibition of specific binding).
# The inhibition constant (Ki) of the test compound was then calculated according to the Cheng-Prusoff equation: [formula] where [L] is the concentration of radiolabel and Ka is the equilibrium dissociation constant.
# The Ki values for several representative compounds of the present invention are present in Table II.
row,Ki,SMILES
1,IA,"CC(Cc1cccc[n+]1[O-])(NC(=O)OC1C2CC3CC(C2)CC1C3)C(=O)NC(CO)Cc1ccccc1 (single isomer, unassigned) [drawing 20]"
2,IA,CC(Cc1ccncc1)(NC(=O)OC1C2CC3CC(C2)CC1C3)C(=O)NC(CO)Cc1ccccc1 (centres unmarked) [drawing 61 (Diast II)]
3,IA,"CC(Cc1cccc[n+]1[O-])(NC(=O)OC1C2CC3CC(C2)CC1C3)C(=O)NC(CO)Cc1ccccc1 (single isomer, unassigned) [drawing 22 (Diast II)]"

# Second part, the compound before the results:
row,SMILES,Ki
1,CC(Cc1ccc[n+]([O-])c1)(NC(=O)OC1C2CC3CC(C2)CC1C3)C(=O)NCCc1ccccc1 (centres unmarked),IA
2,CC(Cc1ccc[n+]([O-])c1)(NC(=O)OC1C2CC3CC(C2)CC1C3)C(=O)NC(CO)Cc1ccccc1 (centres unmarked) [drawing 60 (Diast I)],IA
3,Cc1[nH]cc(CC(C)(NC(=O)OC2C3CC4CC(C3)CC2C4)C(=O)NCCc2ccccc2)c1C (centres unmarked) [drawing 56 (H H H H H)],IA
4,CC(Cc1c[nH]c2ccncc12)(NC(=O)OC1C2CC3CC(C2)CC1C3)C(=O)NC(CO)C(O)c1ccccc1 (centres unmarked) [drawing 67],IA
5,CC(Cc1n[nH]c2ccccc12)(NC(=O)OC1C2CC3CC(C2)CC1C3)C(=O)NCC(c1ccccc1)N1C(=O)CCC1=O (centres unmarked) [drawing 53/drawing 54 (Diast I)],IA
6,CC(Cc1cccc[n+]1[O-])(NC(=O)OC1C2CC3CC(C2)CC1C3)C(=O)NCCc1ccccc1 (centres unmarked) [drawing 22 (H H H H H)],IA
7,CC(Cc1cccnc1)(NC(=O)OC1C2CC3CC(C2)CC1C3)C(=O)NCCc1ccccc1 (centres unmarked),IA

# Same assay, conditions: 2 nM tritiated pentagastrin, mouse cerebral cortical membranes; Ki from IC50 by Cheng-Prusoff; read-out: Ki
row,Ki [nM],SMILES
1,1390,CC(Cc1cc2c(cn1)[nH]c1ccccc12)(NC(=O)OC1C2CC3CC(C2)CC1C3)C(=O)NC(CO)Cc1ccccc1 (centres unmarked)
2,14,CC(Cc1cccc2ccccc12)(NC(=O)OC1C2CC3CC(C2)CC1C3)C(=O)NC(CO)Cc1ccccc1 (centres unmarked) [drawing 26]
3,360,CC(Cc1coc2ccccc12)(NC(=O)OC1C2CC3CC(C2)CC1C3)C(=O)NC(CO)Cc1ccccc1 (centres unmarked) [drawing 27 (H H CH2 OH H H)]
4,990,CC(Cc1coc2ccccc12)(NC(=O)OC1C2CC3CC(C2)CC1C3)C(=O)NCCc1ccccc1 (centres unmarked) [drawing 27 (H H H H H)]
5,455,CC(Cc1csc2ccccc12)(NC(=O)OC1C2CC3CC(C2)CC1C3)C(=O)N[C@H](CO)Cc1ccccc1 (some centres unmarked) [drawing 47 (H H CH2 OH H H)]
6,370,CC(Cc1ccncc1)(NC(=O)OC1C2CC3CC(C2)CC1C3)C(=O)NC(CO)Cc1ccccc1 (centres unmarked) [drawing 61 (Diast I)]
7,14,CC(Cc1c(Br)oc2ccccc12)(NC(=O)OC1C2CC3CC(C2)CC1C3)C(=O)NC(CO)Cc1ccccc1 (centres unmarked) [drawing 28 (H H CH2 OH H H)]
8,129,CC(Cc1ccnc2ccccc12)(NC(=O)OC1C2CC3CC(C2)CC1C3)C(=O)N[C@H](CO)Cc1ccccc1 (some centres unmarked) [drawing 40 (H H CH2 OH H H)]
9,410,CC(Cc1ccc2ccccc2n1)(NC(=O)OC1C2CC3CC(C2)CC1C3)C(=O)N[C@H](CO)Cc1ccccc1 (some centres unmarked) [drawing 36 (Diast I)]
10,1000,"CC(Cc1ccccn1)(NC(=O)OC1C2CC3CC(C2)CC1C3)C(=O)NC(CO)Cc1ccccc1 (single isomer, unassigned) [drawing 14 (Diast I)]"
11,700,CC(Cc1cccnc1)(NC(=O)OC1C2CC3CC(C2)CC1C3)C(=O)N[C@H](CO)Cc1ccccc1 (some centres unmarked) [drawing 32 (Diast I)]
12,402,CC(Cc1ccc2ccccc2n1)(NC(=O)OC1C2CC3CC(C2)CC1C3)C(=O)NC(CO)Cc1ccccc1 (centres unmarked) [drawing 43 (H H CH2 OH H H)]
13,720,CC(Cc1cccc2ccccc12)(NC(=O)OC1C2CC3CC(C2)CC1C3)C(=O)NC(CO)Cc1ccccc1 (centres unmarked) [drawing 24]
14,69,CC(Cc1n[nH]c2ccccc12)(NC(=O)OC1C2CC3CC(C2)CC1C3)C(=O)N[C@H](CO)Cc1ccccc1 (some centres unmarked) [drawing 38 (H H CH2 OH H H)]

# The next lines start with the compound.
row,SMILES,Ki [nM]
1,CC(Cc1cc2c3ccccc3n(S(C)(=O)=O)c2cn1)(NC(=O)OC1C2CC3CC(C2)CC1C3)C(=O)NC(CO)Cc1ccccc1 (centres unmarked),844
2,CC(Cc1csc2ccccc12)(NC(=O)OC1C2CC3CC(C2)CC1C3)C(=O)NCCc1ccccc1 (centres unmarked) [drawing 47 (H H H H H)],760
3,CC(Cc1n[nH]c2ccccc12)(NC(=O)OC1C2CC3CC(C2)CC1C3)C(=O)NCC(c1ccccc1)N1C(=O)CCC1=O (centres unmarked) [drawing 53/drawing 54 (Diast II)],220
4,CC(CC1CCc2ccccc2N1)(NC(=O)OC1C2CC3CC(C2)CC1C3)C(=O)NCC(NC(=O)CCC(=O)O)c1ccccc1 (centres unmarked),690
5,CC(Cc1ccc2ccccc2n1)(NC(=O)OC1C2CC3CC(C2)CC1C3)C(=O)NCC(NC(=O)CCC(=O)O)c1ccccc1 (centres unmarked),290
6,CC(Cc1ccncc1)(NC(=O)OC1C2CC3CC(C2)CC1C3)C(=O)NCCc1ccccc1 (centres unmarked),3000
7,CC(Cc1ccc2ccccc2n1)(NC(=O)OC1C2CC3CC(C2)CC1C3)C(=O)NCCc1ccccc1 (centres unmarked) [drawing 36 (H H H H H)],400
8,CC(Cc1n[nH]c2ccccc12)(NC(=O)OC1C2CC3CC(C2)CC1C3)C(=O)NCCc1ccccc1 (centres unmarked) [drawing 38 (H H H H H)],100
9,CC(Cc1c[nH]c2ncccc12)(NC(=O)OC1C2CC3CC(C2)CC1C3)C(=O)NC(CO)C(O)c1ccccc1 (centres unmarked) [drawing 66 (Diast I)],580
10,CN1c2ccccc2C(c2ccccc2)=NCC1CC(C)(NC(=O)OC1C2CC3CC(C2)CC1C3)C(=O)NCC(NC(=O)CCC(=O)O)c1ccccc1 (centres unmarked),290
11,CC(Cc1ccccn1)(NC(=O)OC1C2CC3CC(C2)CC1C3)C(=O)NCCc1ccccc1 (centres unmarked),3000
12,CC(Cc1n[nH]c2ccccc12)(NC(=O)OC1C2CC3CC(C2)CC1C3)C(=O)NCC(NC(=O)CCC(=O)O)c1ccccc1 (centres unmarked) [drawing 53 (H H H H NHCOCH2 CH2 COOH)],96
13,CC(Cc1c[nH]c2ccncc12)(NC(=O)OC1C2CC3CC(C2)CC1C3)C(=O)NC(CO)C(O)c1ccccc1 (centres unmarked) [drawing 69],2300
14,Cc1[nH]cc(CC(C)(NC(=O)OC2C3CC4CC(C3)CC2C4)C(=O)NC(CO)C(O)c2ccccc2)c1C (centres unmarked) [drawing 56 (H H CH2 OH H OH)],3000
15,CN1c2ccccc2C(c2ccccc2)=NCC1CC(C)(NC(=O)OC1C2CC3CC(C2)CC1C3)C(=O)NCCc1ccccc1 (centres unmarked) [drawing 64 (Diast I)],760
16,CC(Cc1ncc2ccccn12)(NC(=O)OC1C2CC3CC(C2)CC1C3)C(=O)N[C@@H](CO)[C@@H](O)c1ccccc1 (some centres unmarked) [drawing 57 (H H CH2 OH H OH)],750
17,CC(Cc1cnc2ccccc2c1)(NC(=O)OC1C2CC3CC(C2)CC1C3)C(=O)NCCc1ccccc1 (centres unmarked),304
18,CC(Cc1c[nH]c2ncccc12)(NC(=O)OC1C2CC3CC(C2)CC1C3)C(=O)NC(CO)C(O)c1ccccc1 (centres unmarked) [drawing 66 (Diast II)],43
19,CC(C)COC(=O)OC[C@H](Cc1ccccc1)NC(=O)C(C)(Cc1cccnc1)NC(=O)OC1C2CC3CC(C2)CC1C3 (some centres unmarked) [drawing 32 (H H CH2 OCO2 i-Bu H H)],3000
20,CC(CC1C=Cc2ccccc2N1)(NC(=O)OC1C2CC3CC(C2)CC1C3)C(=O)NCC(NC(=O)CCC(=O)O)c1ccccc1 (centres unmarked),3000
21,CC(Cc1cc2c3ccccc3n(S(C)(=O)=O)c2cn1)(NC(=O)OC1C2CC3CC(C2)CC1C3)C(=O)NCCc1ccccc1 (centres unmarked),1990
22,CC(Cc1cc2c(cn1)[nH]c1ccccc12)(NC(=O)OC1C2CC3CC(C2)CC1C3)C(=O)NCCc1ccccc1 (centres unmarked),2170
23,CC(Cc1ccnc2ccccc12)(NC(=O)OC1C2CC3CC(C2)CC1C3)C(=O)NCCc1ccccc1 (centres unmarked) [drawing 40 (H H H H H)],262
